Experimental data as given in article PMC10766610, “DCAF1-based PROTACs with activity against clinically validated targets overcoming intrinsic- and acquired-degrader resistance” (Nature Communications, 2024).
Like-named read-outs stand apart in the source and are kept apart here.

Tests used:
BRD9 [1] = target: T1, BRD9 (Homo sapiens, UniProt Q9H8M2); experiment: Immunoblot of BRD9 in HEK293 BRD9-HiBiT/FF/CAS9 cells; assay type: cell-based; design: host or cells: HEK293/BRD9-HiBiT knock-in; clone and BRD9-HiBiT/CAS9/FF clone; conditions: 1000 nM, 6 h
T1 sequence (Q9H8M2 1-597): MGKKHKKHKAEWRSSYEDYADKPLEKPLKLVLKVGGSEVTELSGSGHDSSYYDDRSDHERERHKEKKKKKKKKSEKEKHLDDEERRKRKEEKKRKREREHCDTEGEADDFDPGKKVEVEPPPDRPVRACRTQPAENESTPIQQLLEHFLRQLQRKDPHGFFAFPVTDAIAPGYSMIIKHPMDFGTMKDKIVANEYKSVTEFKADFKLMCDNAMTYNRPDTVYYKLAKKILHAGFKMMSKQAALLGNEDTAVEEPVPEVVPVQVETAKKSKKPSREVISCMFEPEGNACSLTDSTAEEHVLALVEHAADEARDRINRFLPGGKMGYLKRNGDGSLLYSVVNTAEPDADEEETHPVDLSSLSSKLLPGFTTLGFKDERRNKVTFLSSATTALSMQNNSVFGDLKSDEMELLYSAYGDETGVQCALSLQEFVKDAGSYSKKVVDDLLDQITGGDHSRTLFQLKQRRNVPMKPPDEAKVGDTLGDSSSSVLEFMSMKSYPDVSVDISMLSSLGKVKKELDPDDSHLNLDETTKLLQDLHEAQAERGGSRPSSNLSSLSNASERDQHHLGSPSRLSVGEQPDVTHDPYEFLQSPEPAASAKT
Description: (§1) Whole cell lysates for immunoblotting were prepared by pelleting cells at 4 °C (300 g) for 3 min. Cell pellets were then washed 1x with PBS and resuspended in RIPA lysis buffer (VWR, cat # 97063-270) supplemented with protease (Thermo Scientific, cat # A32955) and phosphatase (Thermo Scientific, cat # A32957) inhibitor tablets. Lysates were clarified at 16,000 × g for 15 min at 4 °C prior to quantification by Lowry assay (Bio-Rad cat # 5000113 and cat # 5000114). Whole-cell lysates were loaded into 4–20% Criterion TGX Precast 18 well gels (Bio-Rad, cat # 5671094) and separated by electrophoreses at 120 V for 1 h. The gels were transferred to a nitrocellulose membrane using the Trans-Blot Turbo (Bio-Rad) for 7 min and then blocked for 1 h at room temperature in Odyssey blocking buffer (LICOR Biosciences, cat # 927-50000). Membranes were probed with the appropriate primary antibodies (diluted 1:1000) overnight at 4 °C in 20% Odyssey blocking buffer in 1x TBST. Membranes were washed three times with 1x TBST (5 min per wash), and then incubated with IRDye goat anti-mouse (LICOR, cat # 926-32210) or goat anti-rabbit (LICOR, cat # 926-32211) secondary antibody diluted 1:10,000 in 20% Odyssey blocking buffer for 1 h at room temperature. After three 5-min washes with 1x TBST, the immunoblots were visualized using the ODYSSEY Infrared Imaging System (LICOR). Alternatively, SDS-PAGE resolved proteins were transferred to a PVDF membrane using a wet blotting system (Invitrogen). Membranes were blocked in 5% Milk-PBS-Tween 20 for 1 h and incubated with primary antibody over night at 4 °C. Secondary antibodies (secondary antibody: anti-rabbit, goat pAb to Rb-IgG (Abcam, #7090); secondary antibody: anti-mouse, sheep IgG HRP-linked (GE healthcare, #NA931V)) were incubated for 1 h at room temperature (RT) before blots were developed on film using the detection kit SuperSignal West Femto Maximum Sensitivity Substrate (Thermo Fisher, #34096).

BRD9 [2] = target: T1, BRD9; experiment: Rescue of DBr-1 mediated BRD9 degradation by co-treatment, BRD9-HiBiT HEK293 cells; assay type: cell-based; design: host or cells: HEK293/BRD9-HiBiT knock-in; clone and BRD9-HiBiT/CAS9/FF clone; conditions: (13) 1 µM, OICR8268 10 µM, BI-9564 10 µM
Description: Supplementary figure 4. Competition experiments with DBr-1 and DBr-1-N […]
a) BRD9-HiBiT signal detection of samples pretreated with either DMSO, 10µM OICR-8268, 1µM […]
Data represents average ± standard deviation from n=3 replicates. DC50 values and […]
maximal observed degradation are shown below. […]
b) Cell titer Glow assay of BRD9 HiBiT cells. Cells pretreated with either DMSO, 10µM OICR-8268, […]
Data represents average ± standard deviation from n=3 replicates.
(§2) Source data are provided as a Source Data file

BTK [3] = target: T2, BTK (Homo sapiens, UniProt Q06187); experiment: Immunoblot of BTK in TMD8 WT and CRBN (CBt) resistant cells; assay type: cell-based; design: performed with full-length BTK and endogenous DCAF1; expressed in transfected cells; host or cells: TMD8 cells, lentiviral, blasticidin-selected (TMD8 BTK-GFP/mCh); conditions: 24 h; 0.1 µM CBt, 1 µM DBt-10
T2 sequence (Q06187 2-659 limits assumed): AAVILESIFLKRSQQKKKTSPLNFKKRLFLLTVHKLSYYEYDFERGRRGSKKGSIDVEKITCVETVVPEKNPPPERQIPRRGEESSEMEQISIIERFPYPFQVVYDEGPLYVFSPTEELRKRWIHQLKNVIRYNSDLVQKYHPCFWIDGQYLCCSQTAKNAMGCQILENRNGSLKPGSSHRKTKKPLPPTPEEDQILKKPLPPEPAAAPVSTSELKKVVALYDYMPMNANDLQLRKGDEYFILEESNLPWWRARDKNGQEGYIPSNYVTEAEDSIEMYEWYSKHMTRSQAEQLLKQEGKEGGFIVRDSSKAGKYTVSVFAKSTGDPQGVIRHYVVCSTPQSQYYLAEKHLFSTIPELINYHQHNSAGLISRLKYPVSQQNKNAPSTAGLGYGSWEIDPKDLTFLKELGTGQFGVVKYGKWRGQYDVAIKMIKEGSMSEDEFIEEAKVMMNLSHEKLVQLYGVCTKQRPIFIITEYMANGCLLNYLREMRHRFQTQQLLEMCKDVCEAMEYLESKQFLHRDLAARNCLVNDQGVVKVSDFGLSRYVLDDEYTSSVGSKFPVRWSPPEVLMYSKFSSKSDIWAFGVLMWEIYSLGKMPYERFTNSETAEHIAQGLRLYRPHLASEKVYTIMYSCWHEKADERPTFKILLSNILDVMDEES
Description: as §1, with “Alternatively, SDS-PAGE resolved proteins were transferred to a PVDF membrane using a wet blotting system (Invitrogen). Membranes were blocked in 5% Milk-PBS-Tween 20 for 1 h and incubated with primary antibody over night at 4 °C. Secondary antibodies (secondary antibody: anti-rabbit, goat pAb to Rb-IgG (Abcam, #7090); secondary antibody: anti-mouse, sheep IgG HRP-linked (GE healthcare, #NA931V)) were incubated for 1 h at room temperature (RT) before blots were developed on film using the detection kit SuperSignal West Femto Maximum Sensitivity Substrate (Thermo Fisher, #34096).” left out

BRD7 = target: T3, BRD7 (Homo sapiens, UniProt Q9NPI1); experiment: BRD7-HiBiT protein abundance luminescence assay in HEK293 cells
T3 sequence (Q9NPI1 1-651): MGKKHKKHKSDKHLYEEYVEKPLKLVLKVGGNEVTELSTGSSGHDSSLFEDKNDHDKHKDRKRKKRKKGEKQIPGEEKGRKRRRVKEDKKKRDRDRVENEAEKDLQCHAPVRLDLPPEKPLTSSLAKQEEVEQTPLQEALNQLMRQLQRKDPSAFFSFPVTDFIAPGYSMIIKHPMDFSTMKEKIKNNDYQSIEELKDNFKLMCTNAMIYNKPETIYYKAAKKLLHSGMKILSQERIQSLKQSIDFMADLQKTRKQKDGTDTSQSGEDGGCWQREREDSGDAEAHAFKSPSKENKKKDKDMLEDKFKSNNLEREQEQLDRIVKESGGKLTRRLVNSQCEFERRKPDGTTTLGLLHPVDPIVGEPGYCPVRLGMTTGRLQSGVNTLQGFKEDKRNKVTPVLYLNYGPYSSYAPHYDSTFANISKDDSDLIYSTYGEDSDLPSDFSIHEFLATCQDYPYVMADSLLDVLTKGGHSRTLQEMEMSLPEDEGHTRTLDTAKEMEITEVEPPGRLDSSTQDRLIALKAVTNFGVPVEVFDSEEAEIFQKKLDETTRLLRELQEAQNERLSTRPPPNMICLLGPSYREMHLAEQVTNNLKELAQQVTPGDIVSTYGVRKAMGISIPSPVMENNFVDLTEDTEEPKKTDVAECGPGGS
Description: HEK293/BRD9-HiBiT pools (PROMEGA # CS3023120) and HEK293/BRD7-HiBiT pools (PROMEGA # CS3023124) were purchased from Promega. We performed clonal selection for HEK293/BRD9-HiBiT cell line using single-cell sorting and screening for HiBiT expression using Nano-Glo HiBiT Lytic Detection System (Promega # N3030). The HEK293/BRD9-HiBiT clone and HEK293/BRD7-HiBiT pool to perform standard HiBiT assays.

BRD9 [4] = target: T1, BRD9; experiment: Capillary western of BRD9 in 768-O cells; assay type: cell-based; conditions: 768-O cells lacking VHL expression
Description: Protein peaks were analyzed using Compass for Simple Western version 5.0.1 (ProteinSimple), area under the curve for both α-tubulin ([…]) and BRD9 (90 kDa) per capillary was extracted and BRD9 area was normalized to α-tubulin area on a per-capillary basis before each sample was normalized to the DMSO for each run of three triplicates.

TMD8 BTK-GFP/mCh cells = experiment: Viability by FSC/SSC gate (flow cytometry) in TMD8 BTK-GFP/mCh cells; assay type: cell-based, human; design: Max dose w/ Gating Viability >25%: unit: µM; conditions: TMD8 BTK-GFP/mCh, 24 h
Description: (§3) For flow cytometry measurements, 25,000 exponentially growing TMD8 BTK-GFP/mCh cells were plated in 100 μL of each well of a 96-well plate and grown for 24 h. Cells were then dosed with corresponding compounds and doses from 10 mM DMSO stock for 24 h, after which GFP and mCherry fluorescence was read with a Beckmann Coulter Cytoflex. For competition experiment, both compounds were added at the same time and dosed for 24 h. Cells were gated based on Forward & Side Scatter and selection for Single cells using SSC-A vs. SSC-H. Further, the population of viable cells was defined by the forward & side-scatter characteristics of DMSO-treated cells. […] Effects on viability were measured by the reduction of the percentage of cells included in this viable-population gate with increasing doses of compound tested. Degradation of BTK was calculated based on subtracting background (BG) fluorescence of parental TMD8 signal via (GFP-BG)/(mCherry-BG) of viable cells. Median ratios of three technical (different wells) replicates were used to calculate daily averages. Each compound dose–response was generated via three biological replicates (different days of experiment). Degradation curve parameters (DC50 & Abs. DC50 & max. Deg) were extracted using GraphPad Prism’s 4-parameter logistic curve fitting.
(§4) The viability window was determined by measuring the GI50 of viability based on the percentage of cells included in the viable gate and comparing it to the DC50 of degradation. The fold-change difference describing this window is [GI50 Viability / DC50 Degradation], where values above 1 indicate a positive (lower DC50 degradation than AC50 viability) window.

[5] = as above; assay type: cell-based, human; design: Max dose w/ Gating Viability >25%: unit: µM; conditions: human, TMD8 BTK-GFP/mCh cells, TMD8 BTK-GFP/mCh, 24 h
Description: as §3, §4

BTK [6] = target: T2, BTK; experiment: BTK-GFP degradation by flow cytometry in TMD8 BTK-GFP/mCh cells; assay type: cell-based; design: performed with full-length BTK and endogenous DCAF1; expressed in transfected cells; host or cells: TMD8 cells, lentiviral, blasticidin-selected (TMD8 BTK-GFP/mCh); conditions: TMD8 BTK-GFP/mCh, 24 h; read-out: DC50 BTK-Degradation
Description: The bicistronic pLenti6 BTK-GFP-chysel-mCHERRY expression vector was cloned as described[92] using Gateway cloning with a pENTR-BTK plasmid lacking a STOP codon. TMD8 cells were then infected with lentiviral particles from this vector as described above and stably transfected cells were selected with blasticidin at a concentration of 10 μg/mL referred to as TMD8 BTK-GFP/mCh cells.
For flow cytometry measurements, 25,000 exponentially growing TMD8 BTK-GFP/mCh cells were plated in 100 μL of each well of a 96-well plate and grown for 24 h. Cells were then dosed with corresponding compounds and doses from 10 mM DMSO stock for 24 h, after which GFP and mCherry fluorescence was read with a Beckmann Coulter Cytoflex. For competition experiment, both compounds were added at the same time and dosed for 24 h. Cells were gated based on Forward & Side Scatter and selection for Single cells using SSC-A vs. SSC-H. Further, the population of viable cells was defined by the forward & side-scatter characteristics of DMSO-treated cells. To confirm cells outside of this population as non-viable, cells were plated and treated for 24 h, washed with PBS and stained for 30 min with two markers of early (Annexin-V) and late (LIVE/DEAD) apoptosis. Effects on viability were measured by the reduction of the percentage of cells included in this viable-population gate with increasing doses of compound tested. Degradation of BTK was calculated based on subtracting background (BG) fluorescence of parental TMD8 signal via (GFP-BG)/(mCherry-BG) of viable cells. Median ratios of three technical (different wells) replicates were used to calculate daily averages. Each compound dose–response was generated via three biological replicates (different days of experiment). Degradation curve parameters (DC50 & Abs. DC50 & max. Deg) were extracted using GraphPad Prism’s 4-parameter logistic curve fitting.

[7] = tested on: TMD8 WT and TMD8 CRBN resist. cells; experiment: CellTiter-Glo viability, TMD8 WT vs CRBN resist. cells; assay type: cell-based, human; conditions: CellTiter-Glo proliferation
Description: TMD8 cells were grown in the presence of a CRBN-BTK PROTAC CBt using a gradual dose increase. Start treatment was 0.1 nM for 6 weeks, followed by 3 weeks at 0.4 nM and another 4 weeks at 10 nM to finally obtain CBt resistant TMD8 cells (TMD8 CRBN resist.).
d) Viability measured by cell titer-Glo for DBt-10 (green) vs (13) (purple) in WT (solid) vs CRBN resist.
(dotted) TMD8 cells. Data represents average ± standard deviation from n=3 replicates.
e) Repeat of the viability measured by cell titer-Glo for DBt-10 (green) vs (13) (purple) in WT (solid) vs
CRBN resist. (dotted) TMD8 cells with adjusted dose response range. Data represents average ±
standard deviation from n=3 replicates.
as §2

COc1cc(-c2cn(C)c(=O)c3cnccc23)c(OC)cc1CN(C)C [BI-9564, reference compound]
BRD9 protein reduction by individual binders (BRD9 [1]): No BRD9 protein reduction
effect of co-treatment on DBr-1 mediated BRD9 degradation (BRD9 [2]): fully rescue the BRD9 degradation

COc1ccc(C(=O)N2CCC3(CCN(CCc4ccc(-c5cc6c(-c7cc(F)cc(NC(=O)c8ccc(C(C)(C)O)cc8F)c7C)ncnc6[nH]5)cc4)CC3)CC2)cc1N1CCC(=O)NC1=O [CBt, reference compound]
BTK degradation in TMD8 CBt sensitive (WT) vs resistant cells (BTK [3]): BTK degradation only in the WT but not in the CBt-resistant TMD8 cells

COc1cc(-c2cn(C)c(=O)c3cnccc23)cc(OC)c1CN1CCN(CCCCCOc2cc(-c3scnc3C)ccc2CNC(=O)[C@@H]2C[C@@H](O)CN2C(=O)[C@@H](NC(=O)C2(F)CC2)C(C)(C)C)CC1 [VZ185]
maximal observed degradation (BRD7), % in brackets (BRD7; 2 h): 21%
DC50 (BRD7; read-out: rel. DC50 (BRD7), 2 h): 0.137 µM
BRD9 levels in 768-O cells (BRD9 [4]): intrinsic resistance

CCN(CC)Cc1ccc(-c2cc3c(-c4cc(F)cc(NC(=O)c5ccc(C(C)(C)O)cc5F)c4C)ncnc3[nH]2)cc1 [compound 17, reference compound]
Max dose w/ Gating Viability >25% (TMD8 BTK-GFP/mCh cells): 5.39
GI50 at 24 h ([5]; read-out: Abs GI50): 6.82 µM
GI50 at 24 h ([5]; read-out: GI50): 6.75 µM
DC50 (BTK [6]): > 25 µM
relative potency change between CBt sensitive and resistant TMD8 cells [7]: neither inhibitor showed any relative potency change

C=CC(=O)N1CCC[C@@H](n2nc(-c3ccc(Oc4ccccc4)cc3)c3c(N)ncnc32)C1 [ibrutinib]
relative potency change between CBt sensitive and resistant TMD8 cells [7]: neither inhibitor showed any relative potency change
